Assay results reported in US11236084B2, “Substituted azaindoline derivatives as NIK inhibitors” (Janssen Pharmaceutica NV, priority 2017, dated 2022).
Like-named read-outs stand apart in the source and are kept apart here.

Biological target: recombinant human NF-kappaB-inducing kinase (NIK/MAP3K14) (Homo sapiens, UniProt Q99558)
Assay: Biological Assay B: inhibition of auto-phosphorylation of recombinant human NIK/MAP3K14 (AlphaScreen), performed at 2 locations
Assay type: biochemical
Conditions: averaged values
Experimental: Inhibition of Auto-Phosphorylation of Recombinant Human NF-kappaB-Inducing Kinase (NIK/MAP3K14) Activity (AlphaScreen®)
NIK/MAP3K14 auto-phosphorylation activity was measured using the AlphaScreen® (αscreen) format (Perkin Elmer). All compounds tested were dissolved in dimethyl sulfoxide (DMSO) and further dilutions were made in assay buffer. Final DMSO concentration was 1% (v/v) in assays. Assay buffer was 50 mM Tris pH 7.5 containing 1 mM EGTA (ethylene glycol tetraacetic acid), 1 mM DTT (dithiothreitol), 0.1 mM Na3VO4, 5 mM MgCl2, 0.01% Tween® 20. Assays were carried out in 384 well Alphaplates (Perkin Elmer). Incubations consisted of compound, 25 microM Adenosine-5′-triphosphate (ATP), and 0.2 nM NIK/MAP3K14. Incubations were initiated by addition of GST-tagged NIK/MAP3K14 enzyme, carried out for 1 h at 25° C. and terminated by addition of stop buffer containing anti-phospho-IKK Ser176/180 antibody. Protein A Acceptor and Glutathione-Donor beads were added before reading using an EnVision® Multilabel Plate Reader (Perkin Elmer). Signal obtained in the wells containing blank samples was subtracted from all other wells and IC50's were determined by fitting a sigmoidal curve to % inhibition of control versus Log10 compound concentration.
Assay B was performed at 2 different locations.
Data for the compounds of the invention in the above assays are provided in Table A (the values in Table are averaged values over all measurements on all batches of a compound; values as IC50 (nM)). (‘n.c.’ means not calculated: ‘Co.’ means compound)

[1] = location 1, AlphaScreen auto-phosphorylation, read-out: Assay B location 1 IC50
[2] = location 2, AlphaScreen auto-phosphorylation, read-out: Assay B location 2 IC50
[3] = location 2, NIK auto-phosphorylation, AlphaScreen, read-out: Assay B location 2 IC50

Sequence of recombinant human NF-kappaB-inducing kinase (NIK/MAP3K14) (Q99558 whole entry): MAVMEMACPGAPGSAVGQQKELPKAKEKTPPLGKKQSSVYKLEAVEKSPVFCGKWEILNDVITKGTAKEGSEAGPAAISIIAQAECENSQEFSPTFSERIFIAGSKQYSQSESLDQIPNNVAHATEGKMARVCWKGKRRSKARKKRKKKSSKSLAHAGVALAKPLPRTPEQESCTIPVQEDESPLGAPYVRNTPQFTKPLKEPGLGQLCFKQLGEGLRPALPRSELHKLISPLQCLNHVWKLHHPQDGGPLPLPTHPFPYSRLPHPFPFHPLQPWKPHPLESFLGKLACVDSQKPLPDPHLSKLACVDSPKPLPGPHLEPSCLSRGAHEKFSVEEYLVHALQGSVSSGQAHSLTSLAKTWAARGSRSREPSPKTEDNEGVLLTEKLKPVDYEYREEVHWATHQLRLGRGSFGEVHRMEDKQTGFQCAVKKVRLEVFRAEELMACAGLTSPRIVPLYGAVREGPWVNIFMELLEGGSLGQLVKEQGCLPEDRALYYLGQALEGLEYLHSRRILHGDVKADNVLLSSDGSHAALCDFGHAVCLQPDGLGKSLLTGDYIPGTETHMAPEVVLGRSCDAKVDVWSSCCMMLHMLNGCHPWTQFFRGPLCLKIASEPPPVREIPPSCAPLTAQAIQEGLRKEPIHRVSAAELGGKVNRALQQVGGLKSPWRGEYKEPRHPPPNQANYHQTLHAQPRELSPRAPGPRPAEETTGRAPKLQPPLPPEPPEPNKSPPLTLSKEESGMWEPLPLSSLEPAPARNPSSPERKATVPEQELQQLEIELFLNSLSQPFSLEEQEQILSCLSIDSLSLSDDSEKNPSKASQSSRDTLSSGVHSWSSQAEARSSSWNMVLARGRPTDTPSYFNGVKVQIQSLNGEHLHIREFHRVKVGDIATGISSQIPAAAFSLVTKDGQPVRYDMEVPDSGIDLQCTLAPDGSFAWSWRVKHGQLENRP

SMILES | IC50 [1] [nM] | IC50 [2] [nM] | IC50 [3] [nM] | IC50 (location 1, NIK auto-phosphorylation, AlphaScreen, read-out: Assay B location 1 IC50) [nM]
COc1cc(Cl)ccc1Nc1nccc(-c2cnc3c(c2)C(C)(CO)CN3)n1 (centres unmarked) [Compound 172] | 75.9 | 71.6 |  | 
COc1cc(N2CCC(F)(F)CC2)ccc1Nc1nccc(-c2cnc3c(c2)C(C)(CO)CN3)n1 (centres unmarked) [Compound 217] |  | 27.5 |  | 
COCCCN(C)c1cc(OC)c(Nc2nccc(-c3cnc4c(c3)C(C)(CO)CN4)n2)cc1Cl (centres unmarked) [Compound 252] |  | 7.4 |  | 
CNC(=O)c1ccc(C)c(Nc2nccc(-c3cnc4c(c3)C(C)(CO)CN4)n2)c1 (centres unmarked) [Compound 219] |  | 61.7 |  | 
COc1cc(CO)c(Cl)cc1Nc1nccc(-c2cnc3c(c2)C(C)(C)CN3)n1 [Compound 339] |  |  | 5.6 | 
COc1ccc(F)cc1Nc1nccc(-c2cnc3c(c2)C(C)(CO)CN3)n1 (centres unmarked) [Compound 182] |  | 3 |  | 
COc1cc(N2CCC(C#N)CC2)ccc1Nc1nccc(-c2cnc3c(c2)C(C)(CO)CN3)n1 (centres unmarked) [Compound 215] |  | 12.9 |  | 
COc1cc(N2CCN(C3CC3)CC2)c(Cl)cc1Nc1nccc(-c2cnc3c(c2)C(C)(CO)CN3)n1 (centres unmarked) [Compound 309] | 6.8 | 2.2 |  | 
Cc1cc(N2CCOCC2)c(F)cc1Nc1nccc(-c2cnc3c(c2)C(C)(CO)CN3)n1 (single isomer, unassigned) [Compound 256] | 155 | 155 |  | 
COc1cc(N2CC(N(C)C)C2)c(Cl)cc1Nc1nccc(-c2cnc3c(c2)C(C)(CO)CN3)n1 (centres unmarked) [Compound 289] | 3.6 | 1.2 |  | 
COc1cc(C2COCCN2C)ccc1Nc1nccc(-c2cnc3c(c2)C(C)(CO)CN3)n1 (centres unmarked) [Compound 200] |  | 132 |  | 
Cc1cc(N2CCOCC2)ccc1Nc1nccc(-c2cnc3c(c2)C(C)(CO)CN3)n1 (centres unmarked) [Compound 216] |  | 47.9 |  | 
Cc1cc(N2CCOCC2)c(Cl)cc1Nc1nccc(-c2cnc3c(c2)C(C)(CO)CN3)n1 (single isomer, unassigned) [Compound 257] | 3 | 3.4 |  | 
CC1(CO)CNc2ncc(-c3ccnc(Nc4cc(F)c(N5CCOCC5)cc4Cl)n3)cc21 (centres unmarked) [Compound 365] | 13.8 | 11 |  | 
COCCN(C)c1cc(OC)c(Nc2nccc(-c3cnc4c(c3)C(C)(CO)CN4)n2)cc1Cl (single isomer, unassigned) [Compound 5S] |  | 1.6 |  | 
CCN1CCN(Cc2cc(OC)c(Nc3nccc(-c4cnc5c(c4)C(C)(CO)CN5)n3)cc2Cl)CC1 (centres unmarked) [Compound 337] |  |  | 1.6 | 
COc1cc(N2CC(C)(C)C2)c(Cl)cc1Nc1nccc(-c2cnc3c(c2)C(C)(CO)CN3)n1 (centres unmarked) [Compound 304] | 18.2 | 5.9 |  | 
COc1cc(N2CC(O)C2)c(Cl)cc1Nc1nccc(-c2cnc3c(c2)C(C)(CO)CN3)n1 (centres unmarked) [Compound 302] |  | 1.7 |  | 

SMILES | IC50 [1] [nM] | IC50 [2] [nM] | IC50 [3] [nM] | IC50 (location 1, NIK auto-phosphorylation, AlphaScreen, read-out: Assay B location 1 IC50) [nM]
CCN1CCN(c2cc(OC)c(Nc3nccc(-c4cnc5c(c4)C(C)(CO)CN5)n3)cc2Cl)CC1 (single isomer, unassigned) [Compound 293] | 1.5 | 0.5 |  | 
CCN1CCN(c2cc(OC)c(Nc3nccc(-c4cnc5c(c4)C(C)(CO)CN5)n3)cc2Cl)CC1 (centres unmarked) [Compound 268] | 4.5 | 0.7 |  | 
COc1cc(N2CCOCC2)c(F)cc1Nc1nccc(-c2cnc3c(c2)C(C)(C)CN3)n1 [Compound 282] | 77.6 | 13.8 |  | 
COc1cccc(Nc2nccc(-c3cnc4c(c3)C(C)(CO)CN4)n2)c1Cl (centres unmarked) [Compound 225] | 13.2 | 10.2 |  | 
COc1cccc(Cl)c1Nc1nccc(-c2cnc3c(c2)C(C)(CO)CN3)n1 (centres unmarked) [Compound 251] | > 10000 | 6760 |  | 
CC(C)Oc1ccccc1Nc1nccc(-c2cnc3c(c2)C(C)(CO)CN3)n1 (centres unmarked) [Compound 175] |  | 33.9 |  | 
COc1cc(-n2cnc(C)c2)ccc1Nc1nccc(-c2cnc3c(c2)C(C)(CO)CN3)n1 (centres unmarked) [Compound 202] |  | 26.9 |  | 
COc1cc(N2CCC(OC)C2)c(Cl)cc1Nc1nccc(-c2cnc3c(c2)C(C)(CO)CN3)n1 (centres unmarked) [Compound 285] | 7.8 | 1.8 |  | 
COc1cc(N2CCOCC2)c(F)cc1Nc1nccc(-c2cnc3c(c2)C(C)(CO)CN3)n1 (single isomer, unassigned) [Compound 254] | 6.5 | 3.6 |  | 
CC1(CO)CNc2ncc(-c3ccnc(Nc4cc(F)c(N5CCOCC5)cc4Cl)n3)cc21 (single isomer, unassigned) [Compound 263] | 129 | 53.7 |  | 
CC(=O)Nc1ccc(C)c(Nc2nccc(-c3cnc4c(c3)C(C)(CO)CN4)n2)c1 (centres unmarked) [Compound 211] |  | 49 |  | 
COc1cc(N2CC3(CCOCC3)C2)c(F)cc1Nc1nccc(-c2cnc3c(c2)C(C)(CO)CN3)n1 (centres unmarked) [Compound 7] | 15.5 | 2.6 |  | 
CC1(CO)CNc2ncc(-c3ccnc(Nc4ccccc4Cl)n3)cc21 (centres unmarked) [Compound 178] |  | 14.1 |  | 
Cc1ccc(OC(F)(F)F)cc1Nc1nccc(-c2cnc3c(c2)C(C)(CO)CN3)n1 (centres unmarked) [Compound 210] |  | 30.9 |  | 
COc1cc(C2CCN(C)CC2)c(Cl)cc1Nc1nccc(-c2cnc3c(c2)C(C)(CO)CN3)n1 (centres unmarked) [Compound 317] | 1.6 | 1.7 |  | 
COc1cccc(F)c1Nc1nccc(-c2cnc3c(c2)C(C)(CO)CN3)n1 (centres unmarked) [Compound 250] | 912 | 1230 |  | 
CC1(CO)CNc2ncc(-c3ccnc(Nc4cc(C#N)c(N5CCOCC5)cc4Cl)n3)cc21 (centres unmarked) [Compound 364] | 10.2 | 6.9 |  | 
COc1ccc(C(C)C)cc1Nc1nccc(-c2cnc3c(c2)C(C)(CO)CN3)n1 (centres unmarked) [Compound 209] |  | 110 |  | 

The next lines start with the values.

IC50 [1] [nM] | IC50 [2] [nM] | IC50 [3] [nM] | IC50 (location 1, NIK auto-phosphorylation, AlphaScreen, read-out: Assay B location 1 IC50) [nM] | SMILES
 | 10.7 |  |  | COc1ccc(CO)cc1Nc1nccc(-c2cnc3c(c2)C(C)(CO)CN3)n1 (centres unmarked) [Compound 204]
437 | 209 |  |  | CN(C)CCOc1cc(N2CCOCC2)c(Cl)cc1Nc1nccc(-c2cnc3c(c2)C(C)(CO)CN3)n1 (centres unmarked) [Compound 371]
3.1 | 1.4 |  |  | COc1cc(C(=O)N2CCC(OC)C2)c(Cl)cc1Nc1nccc(-c2cnc3c(c2)C(C)(CO)CN3)n1 (centres unmarked) [Compound 290]
3.6 | 3.8 |  |  | CC1(CO)CNc2ncc(-c3ccnc(Nc4cc(C#N)c(N5CCOCC5)cc4Cl)n3)cc21 (single isomer, unassigned) [Compound 259]
~6610 | > 10000 |  |  | COc1ccc(N2CCN(C)CC2)cc1Nc1nccc(-c2cnc3c(c2)C(C)(CO)CN3)n1 (centres unmarked) [Compound 238]
 | 63.1 |  |  | Cc1c(C#N)cccc1Nc1nccc(-c2cnc3c(c2)C(C)(CO)CN3)n1 (centres unmarked) [Compound 223]
4 | 2.6 |  |  | CCN1CCN(c2cc(OC)c(Nc3nccc(-c4cnc5c(c4)C(C)(CO)CN5)n3)cc2F)CC1 (centres unmarked) [Compound 275]
 | 38 |  |  | CCC1(CC#N)CNc2ncc(-c3ccnc(Nc4ccc(C(=O)N5CCC(OC)CC5)cc4OC)n3)cc21 (centres unmarked) [Compound 155]
 | 2.7 |  |  | CCN1CCN(c2cc(OC)c(Nc3nccc(-c4cnc5c(c4)C(C)(CO)CN5)n3)cc2C#N)CC1 (centres unmarked) [Compound 279]
102 | 42.7 |  |  | COc1cc(N2CCOCC2)c(F)cc1Nc1nccc(-c2cnc3c(c2)C(C)(CO)CN3)n1 (single isomer, unassigned) [Compound 253]
 |  | 3.6 |  | COc1cc(N2CCC(O)CC2)c(Cl)cc1Nc1nccc(-c2cnc3c(c2)C(C)(C)CN3)n1 [Compound 336]
 | 38 |  |  | CCc1ccc(OC)c(Nc2nccc(-c3cnc4c(c3)C(C)(CO)CN4)n2)c1 (centres unmarked) [Compound 206]
 | 3.4 |  |  | COc1ccc(C)cc1Nc1nccc(-c2cnc3c(c2)C(C)(CO)CN3)n1 (centres unmarked) [Compound 184]
 | 30.9 |  |  | COc1cc(-c2ccnn2C)ccc1Nc1nccc(-c2cnc3c(c2)C(C)(CO)CN3)n1 (centres unmarked) [Compound 203]
 | 12 |  |  | COc1cccc(Nc2nccc(-c3cnc4c(c3)C(C)(CO)CN4)n2)c1C (centres unmarked) [Compound 214]
 | 32.4 |  |  | CC1(CO)CNc2ncc(-c3ccnc(Nc4ccccc4F)n3)cc21 (centres unmarked) [Compound 177]
 | 3.6 |  |  | COc1cc(N2CCC(C#N)CC2)c(Cl)cc1Nc1nccc(-c2cnc3c(c2)C(C)(CO)CN3)n1 (centres unmarked) [Compound 245]
 | 17.8 |  |  | COc1ccc(C#N)cc1Nc1nccc(-c2cnc3c(c2)C(C)(CO)CN3)n1 (single isomer, unassigned) [Compound 249]
 | 3.8 |  |  | COc1cc(CCO)ccc1Nc1nccc(-c2cnc3c(c2)C(C)(CO)CN3)n1 (centres unmarked) [Compound 185]
 | 22.4 |  |  | Cc1ccccc1Nc1nccc(-c2cnc3c(c2)C(C)(CO)CN3)n1 (centres unmarked) [Compound 179]
7.4 | 4.1 |  |  | COc1cc(C#N)c(C)c(Nc2nccc(-c3cnc4c(c3)C(C)(CO)CN4)n2)c1 (centres unmarked) [Compound 226]
 | 11.2 |  |  | CNC(=O)c1ccc(Nc2nccc(-c3cnc4c(c3)C(C)(CO)CN4)n2)c(OC)c1 (centres unmarked) [Compound 152]
 |  |  | 24 | COc1cc(C(=O)NC2CCOCC2)ccc1Nc1ncc(Cl)c(-c2cnc3c(c2)C(C)(CO)CN3)n1 (single isomer, unassigned) [Compound 351]
 | 204 |  |  | CC1(CO)CNc2ncc(-c3ccnc(Nc4ccccc4C(F)(F)F)n3)cc21 (centres unmarked) [Compound 180]
